The values below are quoted from earlier work in US20110118243A1, “ANTI-INFLAMMATORY DRUG DELIVERY SYSTEM” (priority 2008, published 2011).

For this data set the following is noted: in horses.

Turning to `CCCCC1C(=O)N(c2ccccc2)N(c2ccccc2)C1=O` [phenylbutazone, 4-butyl-diphenyl-3,5-pyrazoidinedione], the Plasma half-life was 5 to 6 h.
